Measurements taken from US9675607B2, “Epimorphic regeneration and related hydrogel delivery systems” (Northwestern University, priority 2013, dated 2017).
“Also recorded” adds a separate entry of the source. Blank lines part the entries; values can stand above or below the compound they belong to.

Tests used:
[1] = test system: 3T3 fibroblasts; assay: Cell viability, ISO 10993 neutral red; type: cell-based; details: 24 hours, positive control
Method: Viability of 3T3 fibroblasts exposed to drug microcrystals was quantified using ISO 10993. Briefly, different dilutions of drug microcrystals in cell culture medium were added to a subconfluent monolayer of 3T3 fibroblasts (n=3). The cells were cultured for 24 hours at 37° C., 5% CO2, and >90% RH and then washed with PBS. Neutral red solution (0.4%) in DMEM was added, and the cells were stained for 3 hours. Following removal of the staining solution and washing the cells with PBS, the cells were destained using 50% ethanol, 49% ddH2O and 1% glacial acetic acid. Following 10 minutes of agitation, absorbance was measured at 540 nm and used to quantify cell viability. […] Culture medium was used as a negative control. Cell culture medium consisted of high glucose DMEM substituted with L-glutamine, penicillin/streptomycin, 10% v/v newborn calf serum and 20 mM HEPES.

[2] = test system: diabetic wound; details: applied directly to the wound site; cited from earlier work
[3] = test system: HIF target gene transcription; assay: RT-PCR of HIF target gene transcription in treated B6 cells; type: cell-based, mouse
Method: (§1) Total RNA from ear fibroblast-like cells or ear hole donuts was prepared with Qiagen RNeasy kit (Qiagen) according to the manufacturer's guidelines. First strand cDNA was synthesized from 1 μg of RNA using the Superscript First-Strand Synthesis System (Invitrogen, Carlsbad, Calif.) according to the manufacturer's instructions. qPCR was performed with SYBR green PCR Master Mix (Applied Biosystems, Life Technologies). In brief, a 20 μl mixture was used containing 10 μl SYBR Green PCR master mix, 1 μl forward and reverse primer, 6 μl sterile water, and 2 μl of complementary DNA template. A negative control (non-template control) was performed in each run. The real-time PCR was performed using a Quant Studio 6 Flex (Applied Biosystems) according to the manufacturer's instructions. All data were normalized to 18S rRNA and quantitative measurements were obtained using the ΔΔCT method. (The primers used are listed with the kit, but not shown, here.

[4] = test system: HIF1a; assay: HIF1a levels in injured ear tissue of SW mice after subcutaneous drug/gel injection (Western, IHC); type: in vivo, mouse; details: single 100 ul injection, 2 mg/ml drug microcrystals; Western and IHC
Method: The kinetics of the effectiveness of the drug/gel construct in the injured ear was examined to determine how often re-injection would be necessary. After earpunching, a single injection (100 ul) of hydrogel containing either 2 mg/ml drug microcrystals (Gd) or 0 mg/ml drug microcrystals (G0) was given plus an un-injected group. Ears were harvested daily for 5 days (FIG. 3D).
(§2) Ear tissue samples (3 ear hole donuts/ear from 3 separate mice) were homogenized in radio-immunoprecipitation assay buffer (50 mM Tris-HCl pH 7.6, containing 150 mM NaCl,1% Triton X-100, 1% sodium deoxycholate, 1 mM EDTA and 0.1% SDS) with 1 mM PMSF and a protease inhibitor cocktail (Sigma). Samples with equal amounts of protein (about 40 μg) were loaded into a NuPAGE 4-12% Bis-Tris gradient gel or 8% Bis-Tris gel (Life Technologies, Grand Island, N.Y.), electrophoresed and then electro-transferred onto a PVDF-FL membrane (Immobilon, Billerica, Mass.).
The methods used were performed as previously described. […]
For quantitation of IHC signal, the method used was previously described. […] The number of “positive staining” pixels was determined. The area was expressed in square microns and the final data were expressed as IHC staining signal per square micron. The mean of 2-6 samples were plotted and standard errors calculated. […]

[5] = test system: HIF2a; assay: HIF2a levels in injured ear tissue of SW mice (Western); type: in vivo, mouse
Method: as §2
Mice were injected subcutaneously at the base of the neck with 100 μL of 10% (w/v) 1:1 (w/w) ratio of P8Cys (with or without 1,4-DPCA drug crystal) to P8NHS hydrogel prepared in PBS. Each component was kept cold and mixed just prior to injection. At different time points, mice were euthanized and tissues were removed for protein and RNA analysis.

[6] = test system: SW ear tissue; assay: Histology, immunostaining and qPCR of injured ear tissue of SW mice; type: in vivo, mouse
Method: as §1
The methods used were performed as previously described. Tissue from normal ears were fixed with Prefer fixative (the active ingredient is glyoxal) (Anatech) overnight and then washed in H2O. Tissue was embedded in paraffin and 5-μm thick sections cut. Before staining, slides were dewaxed in xylene and rehydrated. Antigen retrieval was performed by autoclaving for 20 min in 10 mM Sodium Citrate, pH 6.0. Tissue sections were then treated with 3% H2O2 and nonspecific binding was blocked with 4% BSA (A7906; Sigma) for 1 h. For immunocytochemistry staining, primary ear skin fibroblasts were grown on coverslips in DMEM with 10% FBS at 37° C. in a humidified 5% CO2 incubator. The coverslips were rinsed with 1×PBS, the cells were fixed in cold methanol (−20° C.) for 10 min, rinsed with 1×PBS, treated with 0.1% Triton-X100, and then incubated with the appropriate primary and secondary antibodies (Table 1). Photomicrographs were produced using the fluorescent microscope (Olympus AX70) and a Spot camera with bundled software.
For histological stains, tissue sections were treated the same as above and then stained with Hematoxylin (Leica Microsystems, #3801562) and Eosin (Leica Microsystems, #3801602), Picro-Sirius Red (Poly Scientific, cat. # s2365), Alcian blue (1% in 3% acetic acid (Polyscience, Bay Shore, N.Y., cat # S111A), or toluidine blue O (Allied Chemical, Morristown, N.J., cat. # NA0652), counterstained with Kernechtrot (Polyscience, Bay Shore, N.Y., cat # S248). The slides were washed, […], cleared with Xylene and coverslipped with Permount mounting media (Fisher, SP15-500). Staining was visualized using an Olympus (AX70) microscope in bright field for H&E and under polarized light for Picro-Sirius Red.
For quantitation of IHC signal, the method used was previously described. Briefly, we used ImagePro v4.0 for image analysis by selecting positive staining from multiple areas in the sections. The number of “positive staining” pixels was determined. The area was expressed in square microns and the final data were expressed as IHC staining signal per square micron. The mean of 2-6 samples were plotted and standard errors calculated.

[7] = Solubility of 1,4-DPCA; type: physicochemical
[8] = test system: hydroxylases (PHDs and FIH); details: cited from earlier work
[9] = test system: collagen hydroxylation; details: rats given this compound; cited from earlier work
[10] = test system: prolyl 4-hydroxylase; details: cited from earlier work
[11] = test system: Swiss Webster (SW) mice; assay: Ear hole closure in ear-punched Swiss Webster mice; type: in vivo, mouse; details: SW mice given 2 mg/ml drug/gel 3 times plus the inhibitor
Source text: Inbred mouse strains were used to study the effect of a small molecule inhibitor of PHD on in-vitro and in-vivo levels of HIF1a, and the impact of this on quantitative regenerative ear hole closure phenotypes. In animal studies, 2.1 mm ear hole punch wounds were created and a 1,4-DPCA-containing hydrogel was subcutaneously implanted in the back of the neck of mice at multiple time-points. Healing was monitored by measuring hole diameters. Endpoints of the study were previously determined to be 30+ days post-injury and included key indices of tissue regeneration such as blastema formation, epithelial, dermal, and cartilaginous wound closure with hair follicle replacement plus multiple molecular markers of cellular de-differentiation, re-differentiation, and stem cell state. These parameters were determined by physical measurements of wound closure, standard tissue histology and histomorphometry, and gene expression using quantitative immunohistochemistry, western analysis, and qPCR. The experimental groups were coded and different laboratory personnel were involved in injuries, injections, phenotyping and data analysis. […]

[12] = day 7, 1,4-DPCA drug/gel-treated SW mice plus inhibitor

Compound: CCCCCCCCCCCCOS(=O)(=O)[O-].[Na+] [SDS]
IC50, cell viability [1]: in the acceptable range

Compound: CC(=O)N(O)CCCCCNC(=O)CCC(=O)N(O)CCCCCNC(=O)CCC(=O)N(O)CCCCCN [DFX, desferrioxamine B]
diabetic wound healing [2]: enhance diabetic wound healing

solubility in water [7]: low solubility
Compound: O=C(O)c1c[nH]c2c(ccc3cccnc32)c1=O [1,4-DPCA, 1,4-dihydrophenonthrolin-4-one-3-carboxylic acid]
HIF target genes Vegf, Hmox1, Ldh-a, Pgk, Pdk1, Glut1 mRNA [3]: specifically increased | day on which HIF1a levels in the ear begin to rise [4]: 1 days | days of peak HIF1a levels in the ear post-injection [4]: 3 to 4 days | HIF2a in ear tissue in-vivo [5]: barely affected | Laminin (basement membrane) in ear tissue ([6]; SW ear tissue, immunostaining): reduced | MMP9 in ear tissue ([6]; SW ear tissue, immunostaining): increased | inflammatory cell markers MPO and Ly6G in ear tissue ([6]; SW ear tissue, immunostaining): increased | inhibition of the hydroxylases in-vitro and in-vivo at the protein level [8]: potent inhibitor | collagen hydroxylation and collagen deposition [9]: inhibition of collagen hydroxylation and a reduction in collagen deposition | inhibition of prolyl 4-hydroxylase [10]: selective and potent inhibitor

Compound: Endostatin
effect on ear hole closure induced by 1,4-DPCA drug/gel [11]: almost complete blockage of ear hole closure | HIF1a, CD31 and OCT3/4 staining [6, 12]: near complete absence | MMP-9, MPO and neutrophil specific-marker [6, 12]: did not inhibit; also recorded: to a lesser degree | laminin staining ([6]; day 7, 1,4-DPCA drug/gel-treated SW mice, endostatin compared with siHif1a_3): greater degree of inhibition

Compound: COC(=O)CNC(=O)C(=O)OC [DMOG, dimethyloxallyl glycine]
diabetic wound healing [2]: enhance diabetic wound healing
